Legend:
KRas G12V = KRas G12V (Homo sapiens, UniProt P01116, G12V); experiment: biochemical; details: Binding to KRas (IC50 nM) G12V, TR-FRET displacement, KRas G12V
KRas WT = KRas WT (Homo sapiens, UniProt P01116); experiment: KRas binding assay (TR-FRET displacement), KRas WT; details: single point, 10 nM compound
ASPC1 cells = experiment: Inhibition of KRas-mediated phosphorylation of ERK (Cisbio HTRF pERK), ASPC1 cells; type: cell-based; details: Homo sapiens, ASPC1, 3 h, AsPC-1 cells; 3 hr compound incubation; Cisbio pERK HTRF
HCT116 cells = experiment: Inhibition of KRas-mediated phosphorylation of ERK (Cisbio HTRF pERK), HCT116 cells; type: cell-based; details: Homo sapiens, HCT-116, 3 h, 3 hr compound incubation, Cisbio pERK HTRF
A549 cells = experiment: Inhibition of KRas-mediated phosphorylation of ERK (Cisbio HTRF pERK), A549 cells; type: cell-based; details: Homo sapiens, A549, 3 h, 3 hr compound incubation, Cisbio pERK HTRF
KRas G12R = KRas G12R (Homo sapiens, UniProt P01116, G12R); experiment: biochemical; details: Binding to KRas (IC50 nM) G12R, TR-FRET displacement, KRas G12R
Chain of KRas G12R (P01116 1-169 isoform P01116-2 G12R): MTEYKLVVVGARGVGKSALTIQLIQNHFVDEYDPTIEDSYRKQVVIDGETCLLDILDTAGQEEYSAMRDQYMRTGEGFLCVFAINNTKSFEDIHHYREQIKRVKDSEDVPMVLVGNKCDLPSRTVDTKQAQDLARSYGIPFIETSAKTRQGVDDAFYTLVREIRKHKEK

H727 cells = experiment: Inhibition of KRas-mediated phosphorylation of ERK (Cisbio HTRF pERK), H727 cells; type: cell-based; details: Homo sapiens, NCI-H727, 3 h, 3 hr compound incubation, Cisbio pERK HTRF
MKN1 cells = experiment: Inhibition of KRas-mediated phosphorylation of ERK (Cisbio HTRF pERK), MKN1 cells; type: cell-based; details: Homo sapiens, MKN-1, 3 hour compound incubation, Cisbio pERK HTRF
How it was run: (§1)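 Phospho-ERK signal measured by HTRF after cells had been plated at 6,000/well in RPMI supplemented with 10% FBS on day 1.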

H460 cells = experiment: Inhibition of KRas-mediated phosphorylation of ERK (Cisbio HTRF pERK), H460 cells; type: cell-based; details: Homo sapiens, NCI-H460, 3 h, 3 hr compound incubation, Cisbio pERK HTRF
KRas G12C = KRas G12C (Homo sapiens, UniProt P01116, G12C); type: binding; details: single point, 10 nM compound, read-out: Binding to KRas (% inhibition at 10 nM) G12C
Chain of KRas G12C (P01116 1-169 isoform P01116-2 G12C): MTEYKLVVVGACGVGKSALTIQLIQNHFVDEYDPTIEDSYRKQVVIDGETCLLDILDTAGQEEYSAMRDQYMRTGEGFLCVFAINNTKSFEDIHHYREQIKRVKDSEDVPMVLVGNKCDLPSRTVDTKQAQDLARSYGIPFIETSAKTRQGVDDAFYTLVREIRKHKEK

KRas G12A = KRas G12A (Homo sapiens, UniProt P01116, G12A); type: binding; details: single point, 10 nM compound, read-out: Binding to KRas (% inhibition at 10 nM) G12A
Chain of KRas G12A (P01116 1-169 isoform P01116-2 G12A): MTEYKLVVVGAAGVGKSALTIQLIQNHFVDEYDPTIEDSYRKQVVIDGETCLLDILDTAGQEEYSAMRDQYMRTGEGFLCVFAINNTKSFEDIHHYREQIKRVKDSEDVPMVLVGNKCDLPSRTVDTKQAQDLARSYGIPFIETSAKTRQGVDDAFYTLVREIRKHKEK

KRas Q61H = KRas Q61H (Homo sapiens, UniProt P01116, Q61H); experiment: KRas binding assay (TR-FRET displacement), KRas Q61H; details: single point, 10 nM compound
Chain of KRas Q61H (P01116 1-169 isoform P01116-2 Q61H): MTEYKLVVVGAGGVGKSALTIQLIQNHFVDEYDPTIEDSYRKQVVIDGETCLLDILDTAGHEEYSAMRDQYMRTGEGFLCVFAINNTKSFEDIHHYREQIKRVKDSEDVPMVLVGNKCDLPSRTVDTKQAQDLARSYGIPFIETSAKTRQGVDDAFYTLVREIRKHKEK

KRas G13D = KRas G13D (Homo sapiens, UniProt P01116, G13D); type: binding; details: single point, 10 nM compound, read-out: Binding to KRas (% inhibition at 10 nM) G13D
Chain of KRas G13D (P01116 1-169 isoform P01116-2 G13D): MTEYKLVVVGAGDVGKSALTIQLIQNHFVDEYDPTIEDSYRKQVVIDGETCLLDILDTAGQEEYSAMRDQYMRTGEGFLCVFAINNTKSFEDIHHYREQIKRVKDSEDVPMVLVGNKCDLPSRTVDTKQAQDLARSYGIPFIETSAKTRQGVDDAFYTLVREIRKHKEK

KRas G12D = KRas G12D (Homo sapiens, UniProt P01116, G12D); experiment: biochemical; details: Binding to KRas (IC50 nM) G12D, TR-FRET displacement, KRas G12D
Chain of KRas G12D (P01116 1-169 isoform P01116-2 G12D): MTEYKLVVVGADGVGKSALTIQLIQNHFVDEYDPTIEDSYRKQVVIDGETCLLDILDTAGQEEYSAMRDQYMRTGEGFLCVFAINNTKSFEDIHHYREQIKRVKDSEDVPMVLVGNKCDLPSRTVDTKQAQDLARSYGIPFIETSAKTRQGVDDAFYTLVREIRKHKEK

KRas G12S = KRas G12S (Homo sapiens, UniProt P01116, G12S); type: binding; details: single point, 10 nM compound, read-out: Binding to KRas (% inhibition at 10 nM) G12S
Chain of KRas G12S (P01116 1-169 isoform P01116-2 G12S): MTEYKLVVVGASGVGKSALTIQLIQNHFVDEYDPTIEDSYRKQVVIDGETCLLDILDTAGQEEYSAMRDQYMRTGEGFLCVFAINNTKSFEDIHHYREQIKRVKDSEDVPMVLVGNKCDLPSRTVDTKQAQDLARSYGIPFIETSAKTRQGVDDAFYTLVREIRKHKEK

PSN1 cells = experiment: Inhibition of KRas-mediated phosphorylation of ERK (Cisbio HTRF pERK), PSN1 cells; type: cell-based; details: Homo sapiens, PSN1, 3 h, 3 hour compound incubation, Cisbio pERK HTRF
How it was run: as §1

Chain of KRas WT (P01116 1-169 isoform P01116-2): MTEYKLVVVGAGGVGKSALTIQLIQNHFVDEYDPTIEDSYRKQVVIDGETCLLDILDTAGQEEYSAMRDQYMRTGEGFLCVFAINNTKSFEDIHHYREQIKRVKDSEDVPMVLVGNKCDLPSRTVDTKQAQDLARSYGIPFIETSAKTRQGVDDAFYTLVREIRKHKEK
Chain of KRas G12V (P01116 1-169 isoform P01116-2 G12V): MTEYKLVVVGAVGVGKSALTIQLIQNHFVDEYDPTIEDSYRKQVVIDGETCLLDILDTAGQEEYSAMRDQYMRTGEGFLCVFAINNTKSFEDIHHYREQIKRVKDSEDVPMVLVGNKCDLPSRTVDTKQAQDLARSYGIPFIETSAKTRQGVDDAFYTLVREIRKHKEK

IC50 (KRas G12V) | inhibition at 0.01 µM (KRas WT) | IC50 (ASPC1 cells) | IC50 (HCT116 cells) | IC50 (A549 cells) | IC50 (KRas G12R) | IC50 (H727 cells) | IC50 (MKN1 cells) | IC50 (H460 cells) | inhibition at 0.01 µM (KRas G12C) | inhibition at 0.01 µM (KRas G12A) | inhibition at 0.01 µM (KRas Q61H) | inhibition at 0.01 µM (KRas G13D) | IC50 (KRas G12D) | inhibition at 0.01 µM (KRas G12S) | IC50 (PSN1 cells) | SMILES
< 2 nM | 62% | 96 nM | 614 nM | 213 nM | < 2 nM | 72 nM | 1.7 nM | 207 nM | 83% | 62% | 61% | 60% | < 2 nM | 76% | > 10000 nM | CCNc1cc2n(n1)CCCN(c1nc(OC[C@@]34CCCN3C[C@H](F)C4)nc3c1CCN(c1cc(O)cc4ccc(F)c(CC)c14)C3)C2 [Example 412, 5-ethyl-4-(4-(2-(ethylamino)-7,8-dihydro-4H-pyrazolo[1,5-a][1,4]diazepin-5(6H)-yl)-2-(((2R,7aS)-2-fluorohexahydro-1H-pyrrolizin-7a-yl)methoxy)-5,6-dihydropyrido[3,4-d]pyrimidin-7(8H)-yl)-6-fluoronaphthalen-2-ol]
< 2 nM | 98% | 90 nM | 1040 nM | 363 nM | < 2 nM | 166 nM | 21.7 nM | 594 nM | 99% | 98% | 97% | 97% | < 2 nM | 100% | 5510 nM | CCc1c(F)ccc2cc(O)cc(N3CCc4c(nc(OC[C@@]56CCCN5C[C@H](F)C6)nc4N4CCCn5nc6c(c5C4)CCNC6=O)C3)c12 [Example 408, 2-(7-(8-ethyl-7-fluoro-3-hydroxynaphthalen-1-yl)-2-(((2R,7aS)-2-fluorohexahydro-1H-pyrrolizin-7a-yl)methoxy)-5,6,7,8-tetrahydropyrido[3,4-d]pyrimidin-4-yl)-2,3,4,5,10,11-hexahydro-1H-pyrido[3′,4′:3,4]pyrazolo[1,5-a][1,4]diazepin-8(9H)-one]
< 2 nM | 100% | 2 nM | 44 nM | 3 nM | < 2 nM | 7 nM | 2 nM | 18 nM | 100% | 100% | 100% | 100% | < 2 nM | 100% | 2940 nM | CCc1c(F)ccc2cc(O)cc(N3CCc4c(nc(OC[C@@]56CCCN5C[C@H](F)C6)nc4N4CCCn5nc(C(=O)N(C)C)nc5C4)C3)c12 [Example 403, 8-(7-(8-ethyl-7-fluoro-3-hydroxynaphthalen-1-yl)-2-(((2R,7aS)-2-fluorohexahydro-1H-pyrrolizin-7a-yl)methoxy)-5,6,7,8-tetrahydropyrido[3,4-d]pyrimidin-4-yl)-N,N-dimethyl-6,7,8,9-tetrahydro-5H-[1,2,4]triazolo[1,5-a][1,4]diazepine-2-carboxamide]
3 nM | 68% | 59 nM | 331 nM | 110 nM | < 2 nM | 100 nM | 24.6 nM | 143 nM | 87% | 73% | 66% | 70% | < 2 nM | 82% | > 10000 nM | CCc1c(F)ccc2cc(O)cc(N3CCc4c(nc(OC[C@@]56CCCN5C[C@H](F)C6)nc4N4CCCn5nc(NC)c(F)c5C4)C3)c12 [Example 406, 5-ethyl-6-fluoro-4-(4-(3-fluoro-2-(methylamino)-7,8-dihydro-4H-pyrazolo[1,5-a][1,4]diazepin-5(6H)-yl)-2-(((2R,7aS)-2-fluorohexahydro-1H-pyrrolizin-7a-yl)methoxy)-5,6-dihydropyrido[3,4-d]pyrimidin-7(8H)-yl)naphthalen-2-ol]

Second part, the compound before the results:

SMILES | IC50 (KRas G12V) | inhibition at 0.01 µM (KRas WT) | IC50 (ASPC1 cells) | IC50 (HCT116 cells) | IC50 (A549 cells) | IC50 (KRas G12R) | IC50 (H727 cells) | IC50 (MKN1 cells) | IC50 (H460 cells) | inhibition at 0.01 µM (KRas G12C) | inhibition at 0.01 µM (KRas G12A) | inhibition at 0.01 µM (KRas Q61H) | inhibition at 0.01 µM (KRas G13D) | IC50 (KRas G12D) | inhibition at 0.01 µM (KRas G12S) | IC50 (PSN1 cells)
CCc1c(F)ccc2cc(O)cc(N3CCc4c(nc(OC[C@@]56CCCN5C[C@H](F)C6)nc4N4CCCn5nc6c(c5C4)CCCNC6=O)C3)c12 [Example 415, 2-(7-(8-ethyl-7-fluoro-3-hydroxynaphthalen-1-yl)-2-(((2R,7aS)-2-fluorohexahydro-1H-pyrrolizin-7a-yl)methoxy)-5,6,7,8-tetrahydropyrido[3,4-d]pyrimidin-4-yl)-2,3,4,5,9,10,11,12-octahydroazepino[3′,4′:3,4]pyrazolo[1,5-a][1,4]diazepin-8(1H)-one] | < 2 nM | 99% | 26 nM | 504 nM | 134 nM | < 2 nM | 28 nM | 16 nM | 171 nM | 100% | 100% | 100% | 99% | < 2 nM | 100% | 1980 nM
CCc1c(F)ccc2cc(O)cc(N3CCc4c(nc(OC[C@@]56CCCN5C[C@H](F)C6)nc4N4CCCn5nc6c(c5C4)CCCN(C)C6=O)C3)c12 [Example 409, 2-(7-(8-ethyl-7-fluoro-3-hydroxynaphthalen-1-yl)-2-(((2R,7aS)-2-fluorohexahydro-1H-pyrrolizin-7a-yl)methoxy)-5,6,7,8-tetrahydropyrido[3,4-d]pyrimidin-4-yl)-9-methyl-2,3,4,5,9,10,11,12-octahydroazepino[3′,4′:3,4]pyrazolo[1,5-a][1,4]diazepin-8(1H)-one] | < 2 nM | 100% | 8 nM | 212 nM | 22 nM | < 2 nM | 7 nM | 3.1 nM | 57 nM | 100% | 100% | 100% | 100% | < 2 nM | 100% | 1220 nM
CCc1c(F)ccc2cc(O)cc(N3CCc4c(nc(OC[C@@]56CCCN5C[C@H](F)C6)nc4N4CCCOCC4)C3)c12 [Example 420, 5-ethyl-6-fluoro-4-(2-(((2R,7aS)-2-fluorohexahydro-1H-pyrrolizin-7a-yl)methoxy)-4-(1,4-oxazepan-4-yl)-5,6-dihydropyrido[3,4-d]pyrimidin-7(8H)-yl)naphthalen-2-ol] | < 2 nM | 95% | 66 nM | 143 nM | 24 nM | < 2 nM | 38 nM | 5.8 nM | 38 nM | 98% | 96% | 97% | 95% | < 2 nM | 97% | 2740 nM
CCc1c(F)ccc2cc(O)cc(N3CCc4c(nc(OC[C@@]56CCCN5C[C@H](F)C6)nc4N4CCCn5nc(C(=O)N6CCN(C)CC6)cc5C4)C3)c12 [Example 402, (5-(7-(8-ethyl-7-fluoro-3-hydroxynaphthalen-1-yl)-2-(((2R,7aS)-2-fluorohexahydro-1H-pyrrolizin-7a-yl)methoxy)-5,6,7,8-tetrahydropyrido[3,4-d]pyrimidin-4-yl)-5,6,7,8-tetrahydro-4H-pyrazolo[1,5-a][1,4]diazepin-2-yl)(4-methylpiperazin-1-yl)methanone] | < 2 nM | 98% | 2 nM | 54 nM | 23 nM | < 2 nM | 10 nM | 5.7 nM | 24 nM | 100% | 98% | 98% | 98% | < 2 nM | 99% | 3910 nM
